Key:
[1] = target: Delta-type opioid receptor (Rattus norvegicus, UniProt P33533); assay: Compound was tested for its ability to displace [3H]DADLE from delta receptor in rat brain.; format: tissue-based
[2] = target: Kappa-type opioid receptor (Cavia porcellus, UniProt P41144); assay: Compound was tested for its ability to displace [3H]U-69593 from kappa receptor in guinea pig brain.
Mu-type opioid receptor = Mu-type opioid receptor (Rattus norvegicus, UniProt P33535); assay: Compound was tested for its ability to displace [3H]DAMGO from mu receptor in rat brain.; format: tissue-based
Mu-type opioid receptor, sequence (P33535 whole entry): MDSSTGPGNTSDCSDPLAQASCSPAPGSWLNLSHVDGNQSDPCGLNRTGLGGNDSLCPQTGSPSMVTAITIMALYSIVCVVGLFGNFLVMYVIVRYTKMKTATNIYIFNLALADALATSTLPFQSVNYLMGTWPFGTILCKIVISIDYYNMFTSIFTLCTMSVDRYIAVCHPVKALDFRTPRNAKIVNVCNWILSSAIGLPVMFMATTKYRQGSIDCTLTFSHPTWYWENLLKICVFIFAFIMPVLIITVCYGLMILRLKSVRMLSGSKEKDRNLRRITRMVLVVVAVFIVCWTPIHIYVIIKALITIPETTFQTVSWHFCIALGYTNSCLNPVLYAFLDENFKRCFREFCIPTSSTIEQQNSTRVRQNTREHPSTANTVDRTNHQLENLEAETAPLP

Delta-type opioid receptor, sequence (P33533 whole entry): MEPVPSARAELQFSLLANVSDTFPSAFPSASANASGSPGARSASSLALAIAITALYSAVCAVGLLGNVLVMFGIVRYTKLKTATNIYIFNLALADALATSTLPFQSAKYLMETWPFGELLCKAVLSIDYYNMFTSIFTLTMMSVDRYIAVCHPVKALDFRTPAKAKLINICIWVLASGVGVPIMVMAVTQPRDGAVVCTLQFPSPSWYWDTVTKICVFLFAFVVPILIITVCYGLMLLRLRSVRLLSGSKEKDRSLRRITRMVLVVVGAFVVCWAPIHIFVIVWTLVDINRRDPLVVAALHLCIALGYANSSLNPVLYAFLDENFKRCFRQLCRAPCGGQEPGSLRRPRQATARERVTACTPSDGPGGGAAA
Kappa-type opioid receptor, sequence (P41144 whole entry): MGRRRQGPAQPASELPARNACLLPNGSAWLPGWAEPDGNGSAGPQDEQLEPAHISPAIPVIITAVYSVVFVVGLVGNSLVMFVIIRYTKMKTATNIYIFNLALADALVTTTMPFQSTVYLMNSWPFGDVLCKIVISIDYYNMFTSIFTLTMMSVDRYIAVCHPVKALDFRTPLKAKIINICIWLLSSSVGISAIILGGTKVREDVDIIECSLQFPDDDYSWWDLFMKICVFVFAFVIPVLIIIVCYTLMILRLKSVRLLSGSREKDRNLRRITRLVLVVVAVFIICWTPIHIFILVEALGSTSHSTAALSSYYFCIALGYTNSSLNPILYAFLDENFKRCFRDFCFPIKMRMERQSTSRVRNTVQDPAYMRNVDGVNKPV

Row | SMILES | Ki [1] | Ki [2] | Ki (Mu-type opioid receptor)
1 | Oc1cccc(-c2ccc3c4c2O[C@H]2c5[nH]c6ccccc6c5C[C@@]5(O)[C@@H](C3)N(CC3CC3)CC[C@]425)c1 | 1.61 µM | > 6.8 µM | > 5.68 µM
2 | O[C@@]12Cc3c([nH]c4ccccc34)[C@@H]3Oc4c(-c5ccccc5)ccc5c4[C@@]31CCN(CC1CC1)[C@@H]2C5 | 10.6 µM | > 6.8 µM | > 5.68 µM
3 | Oc1ccc2c3c1O[C@H]1c4[nH]c5ccccc5c4C[C@@]4(O)[C@@H](C2)N(CC2CC2)CC[C@]314 [NALTRINDOLE] | 0.000217 µM | 0.0304 µM | 
4 | O[C@@]12Cc3c([nH]c4ccccc34)[C@@H]3Oc4c(-c5ccco5)ccc5c4[C@@]31CCN(CC1CC1)[C@@H]2C5 | 0.959 µM | > 6.8 µM | > 5.68 µM
5 | COc1cccc(-c2ccc3c4c2O[C@H]2c5[nH]c6ccccc6c5C[C@@]5(O)[C@@H](C3)N(CC3CC3)CC[C@]425)c1 | > 6.67 µM | > 6.8 µM | > 5.68 µM
6 | Cc1ccc2c3c1O[C@H]1c4[nH]c5ccccc5c4C[C@@]4(O)[C@@H](C2)N(CC2CC2)CC[C@]314 | 0.071 µM | > 6.8 µM | > 5.68 µM
7 | C=Cc1ccc2c3c1O[C@H]1c4[nH]c5ccccc5c4C[C@@]4(O)[C@@H](C2)N(CC2CC2)CC[C@]314 | 0.061 µM | 17.6 µM | > 5.68 µM
8 | O[C@@]12Cc3c([nH]c4ccccc34)[C@H]3Oc4cccc5c4[C@@]31CCN(CC1CC1)[C@@H]2C5 | 0.035 µM | 10.9 µM | > 5.68 µM
